Results: ChEMBL document CHEMBL4840338, “Cudraflavone C from Artocarpus hirsutus as a Promising Inhibitor of Pathogenic, Multidrug-Resistant S. aureus, Persisters, and Biofilms: A New Insight into a Rational Explanation of Traditional Wisdom” (J Nat Prod, 2021)
In brackets after ≈: the same amount, converted by molar mass. Activity calls are given as the source filed them. No cut-off for these calls is given here.

Assays:
Staphylococcus aureus [1] = experiment: microbe, parasite or virus in culture; conditions: ATCC 29213
Description: Antibacterial activity against Staphylococcus aureus ATCC 29213 assessed as bacterial growth inhibition incubated for 16 to 18 hrs by broth microdilution method

Escherichia coli [2] = experiment: Antibacterial activity against Escherichia coli ATCC 25922 assessed as bacterial growth inhibition incubated for 16 to 18 hrs by broth microdilution method; type: functional; conditions: time 16-18 hrs
Enterococcus = experiment: Antibacterial activity against Enterococcus NR 31884 assessed as bacterial growth inhibition incubated for 16 to 18 hrs by broth microdilution method; type: functional; conditions: time 16-18 hrs
Klebsiella pneumoniae = experiment: Antibacterial activity against Klebsiella pneumoniae BAA-1705 assessed as bacterial growth inhibition incubated for 16 to 18 hrs by broth microdilution method; type: functional; conditions: time 16-18 hrs
Pseudomonas aeruginosa = experiment: Antibacterial activity against Pseudomonas aeruginosa ATCC 27853 assessed as bacterial growth inhibition incubated for 16 to 18 hrs by broth microdilution method; type: functional; conditions: time 16-18 hrs
Acinetobacter baumannii [3] = experiment: Antibacterial activity against Acinetobacter baumannii BAA 1605 assessed as bacterial growth inhibition incubated for 16 to 18 hrs by broth microdilution method; type: functional; conditions: time 16-18 hrs
Staphylococcus aureus [4] = experiment: Antibacterial activity against Staphylococcus aureus ATCC 29213 assessed as time for post-antibiotic effect at 10XMIC incubated for 1 hr followed by drug wash-out and measured every single 1 hr; type: functional
Staphylococcus aureus [5] = experiment: Antibacterial activity against Staphylococcus aureus ATCC 29213 assessed as time for increase by 1 log10CFU at 10XMIC incubated for 1 hr followed by drug wash-out and measured every single 1 hr; type: functional
Staphylococcus aureus [6] = experiment: Antibacterial activity against Staphylococcus aureus ATCC 29213 assessed as time for increase by 1 log10CFU at 1XMIC incubated for 1 hr followed by drug wash-out and measured every single 1 hr; type: functional
Staphylococcus aureus [7] = experiment: Antibacterial activity against Staphylococcus aureus ATCC 29213 assessed as reduction in bacterial growth at sub-MIC incubated for 25 days; type: functional, organism-based; conditions: time 25.0 day
Staphylococcus aureus [8] = experiment: Antibacterial activity against Staphylococcus aureus ATCC 29213 assessed as time for post-antibiotic effect at 1XMIC incubated for 1 hr followed by drug wash-out and measured every single 1 hr; type: functional
Escherichia coli [9] = experiment: Antibacterial activity against Escherichia coli ATCC 25922 assessed as bacterial growth inhibition in presence of outermembrane permeabilizer, PMBN incubated for 16 to 18 hrs by broth microdilution method; type: functional; conditions: time 16-18 hrs
Acinetobacter baumannii [10] = experiment: Antibacterial activity against Acinetobacter baumannii BAA-1605 ssessed as bacterial growth inhibition in presence of outermembrane permeabilizer, PMBN incubated for 16 to 18 hrs by broth microdilution method; type: functional; conditions: time 16-18 hrs
Staphylococcus aureus [11] = experiment: Antibiofilm activity against Staphylococcus aureus ATCC 29213 assessed as reduction in preformed bacterial biofilm at 1XMIC incubated for 24 hrs by crystal violet staining based microtiter plate reader assay; type: functional
Staphylococcus aureus [12] = experiment: Antibacterial activity against Staphylococcus aureus ATCC 29213 infected in mouse J774.A1 assessed as reduction in intracellular bacterial burden at 5XMIC incubated for 24 hrs followed by replating on TSA plate for 24 hrs by intracellular killing assay; type: functional; conditions: time 48.0 hrs
Staphylococcus aureus [13] = experiment: Antibiofilm activity against Staphylococcus aureus ATCC 29213 assessed as reduction in preformed bacterial biofilm at 10XMIC incubated for 24 hrs by crystal violet staining based microtiter plate reader assay; type: functional
Staphylococcus aureus [14] = experiment: Bactericidal activity against Staphylococcus aureus ATCC 29213 assessed as reduction in bacterial load at 1X MIC preincubated for 6 hrs followed by subculturing on TSA plate for 18 to 20 hrs by time-kill assay; type: functional; conditions: time 24-26 hrs

| SMILES | MIC (Staphylococcus aureus [1]) [µg/mL] | MIC (Escherichia coli [2]) [µg/mL] | MIC (Enterococcus) [µg/mL] | MIC (Klebsiella pneumoniae) [µg/mL] | MIC (Pseudomonas aeruginosa) [µg/mL] | MIC (Acinetobacter baumannii [3]) [µg/mL] | also measured |
| --- | --- | --- | --- | --- | --- | --- | --- |
| CCCCCCCCCC(=O)N[C@@H](Cc1c[nH]c2ccccc12)C(=O)N[C@H](CC(N)=O)C(=O)N[C@@H](CC(=O)O)C(=O)N[C@@H]1C(=O)NCC(=O)N[C@@H](CCCN)C(=O)N[C@@H](CC(=O)O)C(=O)N[C@H](C)C(=O)N[C@@H](CC(=O)O)C(=O)NCC(=O)N[C@H](CO)C(=O)N[C@@H]([C@H](C)CC(=O)O)C(=O)N[C@@H](CC(=O)c2ccccc2N)C(=O)O[C@@H]1C | 1 (≈ 0.617 µM) |  |  |  |  |  |  |
| COc1cc2oc3c(c(=O)c2c(O)c1/C=C/C(C)C)C(C=C(C)C)Oc1cc(O)ccc1-3 (stereo not drawn) | > 64 | > 64 | > 64 | > 64 | > 64 | > 64 |  |
| CC(C)(O/N=C(\C(=O)N[C@@H]1C(=O)N2C(C(=O)[O-])=C(C[n+]3ccccc3)CS[C@H]12)c1csc(N)n1)C(=O)O [CEFTAZIDIME] | 16 (≈ 29.3 µM) |  |  |  |  |  |  |
| CC(C)=CC1Oc2cc(O)ccc2-c2oc3cc4c(c(O)c3c(=O)c21)C=CC(C)(C)O4 (stereo not drawn) [CUDRAFLAVONE A] | > 64 | > 64 | > 64 | > 64 | > 64 | > 64 |  |
| C[C@H]1COc2c(N3CCN(C)CC3)c(F)cc3c(=O)c(C(=O)O)cn1c23.C[C@H]1COc2c(N3CCN(C)CC3)c(F)cc3c(=O)c(C(=O)O)cn1c23.O [LEVOFLOXACIN] | 0.125 |  | 0.25 | 64 | 0.5 |  | Time (Staphylococcus aureus [4]): 1 h; Time (Staphylococcus aureus [5]): 3 h; Time (Staphylococcus aureus [6]): 2.5 h; Activity (Staphylococcus aureus [7]): inactive; Time (Staphylococcus aureus [8]): 0.5 h |
| C[C@@H](O)[C@H]1C(=O)N2C(C(=O)O)=C(S[C@@H]3CN[C@H](C(=O)N(C)C)C3)[C@H](C)[C@H]12 [MEROPENEM] | 1 (≈ 2.61 µM) |  |  |  |  |  |  |
| CN(C)c1ccc(O)c2c1C[C@H]1C[C@H]3[C@H](N(C)C)C(O)=C(C(N)=O)C(=O)[C@@]3(O)C(O)=C1C2=O [MINOCYCLINE] | 0.25 (≈ 0.546 µM) |  |  |  |  |  |  |
| Oc1cc(O)cc(/C=C/c2ccc(O)cc2O)c1 [OXYRESVERATROL] | > 64 | > 64 | > 64 | > 64 | > 64 | > 64 |  |
| CO[C@H]1/C=C/O[C@@]2(C)Oc3c(C)c(O)c4c(O)c(c(/C=N/N5CCN(C)CC5)c(O)c4c3C2=O)NC(=O)/C(C)=C\C=C\[C@H](C)[C@H](O)[C@@H](C)[C@@H](O)[C@@H](C)[C@H](OC(C)=O)[C@@H]1C [RIFAMPIN] | 0.0078 (≈ 0.00948 µM) | 8 (≈ 9.72 µM) |  |  |  | 2 (≈ 2.43 µM) | MIC (Escherichia coli [9]): 0.06 µg/mL; MIC (Acinetobacter baumannii [10]): 0.03 µg/mL |
| CN[C@H](CC(C)C)C(=O)N[C@H]1C(=O)N[C@@H](CC(N)=O)C(=O)N[C@H]2C(=O)N[C@H]3C(=O)N[C@H](C(=O)N[C@H](C(=O)O)c4cc(O)cc(O)c4-c4cc3ccc4O)[C@H](O)c3ccc(c(Cl)c3)Oc3cc2cc(c3O[C@@H]2O[C@H](CO)[C@@H](O)[C@H](O)[C@H]2O[C@H]2C[C@](C)(N)[C@H](O)[C@H](C)O2)Oc2ccc(cc2Cl)[C@H]1O [VANCOMYCIN] |  | 512 (≈ 353 µM) |  |  |  | 256 (≈ 177 µM) | Time (Staphylococcus aureus [4]): 1.5 h; Activity (Staphylococcus aureus [11]): inactive; MIC (Escherichia coli [9]): 128 µg/mL; Time (Staphylococcus aureus [5]): 3.5 h; Time (Staphylococcus aureus [6]): 3 h; Activity (Staphylococcus aureus [12]): inactive; inhibition (INH) (Staphylococcus aureus [13]): 7.7%; MIC (Acinetobacter baumannii [10]): 64 µg/mL; Activity (Staphylococcus aureus [14]): 1 log10CFU/ml; Time (Staphylococcus aureus [8]): 1 h |
